Assay results taken from patent US5041567A, “Antibacterial monic acid derivatives” (Beecham Group plc, priority 1982, dated 1991).
Converted amounts (≈) assume the structure as drawn. Where two headings read alike, the source gives them in different places.

What was measured:
[1] = system: M. suipneumoniae NB12; experiment: MIC against mycoplasma in vitro; format: cell-based; settings: Mesomycoplasma hyopneumoniae, 144 h; M. suipneumoniae NB12; Friis broth, 0.9% agarose, 6 days, 37° C.; read-out: MIC
[2] = system: M. suipneumoniae Str. 11; experiment: MIC against mycoplasma in vitro; format: cell-based; settings: Mesomycoplasma hyopneumoniae
[3] = system: M. suipneumoniae PW/C/210; experiment: MIC against mycoplasma in vitro; format: cell-based; settings: Mesomycoplasma hyopneumoniae, 144 h
[4] = system: M. suipneumoniae UCD 1; experiment: MIC against mycoplasma in vitro; format: cell-based; settings: Mesomycoplasma hyopneumoniae, UCD1, 144 h
[5] = system: M. bovis NCTC 10131; experiment: microbe, parasite or virus in culture; format: cell-based; settings: NCTC10131, 144 h
[6] = system: M. gallisepticum S6; experiment: MIC against mycoplasma in vitro; format: cell-based; settings: Mycoplasmoides gallisepticum, 144 h; M. gallisepticum S6; 6 days, 37° C.; read-out: MIC
[7] = system: E. coli NCTC 10418; experiment: MIC against human bacteria in vitro; format: cell-based; settings: Escherichia coli
[8] = system: Ps. aeruginosa NCTC 10662; experiment: MIC against human bacteria in vitro; format: cell-based; settings: Pseudomonas aeruginosa
[9] = system: Haemophilus influenzae Q1; experiment: MIC against human bacteria in vitro; format: cell-based; settings: Haemophilus influenzae Q1; 5% chocolated horse blood agar, 18 hours; read-out: MIC
[10] = system: Haemophilus influenzae Wy21; experiment: MIC against human bacteria in vitro; format: cell-based; settings: Haemophilus influenzae Wy21; 5% chocolated horse blood agar, 18 hours; read-out: MIC
[11] = system: Corynebacterium xerosis 9755; experiment: MIC against human bacteria in vitro; format: cell-based
[12] = system: Strep. agalactiae 2788-B; experiment: MIC against human bacteria in vitro; format: cell-based; settings: Streptococcus agalactiae
[13] = system: E. coli NCTC 10418; experiment: MIC against veterinary bacteria in vitro; settings: Escherichia coli, NCTC10418, 18 h
Procedure: (§1) The activity of the compounds of the Examples against various veterinarily important bacteria, was assayed in vitro using two-fold serial dilutions in Diagnostic Sensitivity Test Agar inoculated with 10^4 organisms.

[14] = system: S. dublin S7; experiment: MIC against veterinary bacteria in vitro; settings: Salmonella enterica, S7, 18 h
Procedure: as §1

[15] = system: Bord. bronchiseptica B09; experiment: MIC against veterinary bacteria in vitro; settings: Bordetella bronchiseptica, B09, 18 h
Procedure: as §1

[16] = system: Past. multocida PA1; experiment: MIC against veterinary bacteria in vitro; settings: Pasteurella multocida, PA1, 18 h
Procedure: as §1

[17] = system: Past. haemolytica PA5; experiment: MIC against veterinary bacteria in vitro; settings: Mannheimia haemolytica, PA5, 18 h
Procedure: as §1

[18] = system: Erysipelothrix rhusiopathiae NCTC 8163; experiment: MIC against veterinary bacteria in vitro; settings: Erysipelothrix rhusiopathiae, NCTC8163, 18 h
Procedure: as §1

[19] = system: Corynebacterium pyogenes CY1; experiment: MIC against veterinary bacteria in vitro; settings: CY1, 18 h
Procedure: as §1

[20] = system: Staph. aureus Oxford; experiment: MIC against veterinary bacteria in vitro; settings: Staphylococcus aureus, 18 h
Procedure: as §1

[21] = system: Strep. dysgalactiae SPD1; experiment: MIC against veterinary bacteria in vitro; settings: Streptococcus dysgalactiae, SPD1, 18 h
Procedure: as §1

[22] = system: Strep. agalactiae SPA1; experiment: MIC against veterinary bacteria in vitro; settings: Streptococcus agalactiae, SPA1, 18 h
Procedure: as §1

[23] = system: M. bovigenitalium ATCC 14173; experiment: MIC against mycoplasma in vitro; format: cell-based; settings: 144 h
[24] = M. suipneumoniae UCD 1, 6 days, 37° C., read-out: MIC
[25] = NCTC10418, E. coli NCTC 10418, agar with 5% chocolated horse blood, 18 hours, 37° C., read-out: MIC
[26] = NCTC10662, Ps. aeruginosa NCTC 10662, 5% chocolated horse blood agar, 18 hours, read-out: MIC
[27] = Corynebacterium xerosis 9755, 5% chocolated horse blood agar, 18 hours, read-out: MIC
[28] = Strep. agalactiae 2788-B, 5% chocolated horse blood agar, 18 hours, read-out: MIC
[29] = 144 h, M. suipneumoniae Str. 11, 6 days, 37° C., read-out: MIC
[30] = M. suipneumoniae PW/C/210, 6 days, 37° C., read-out: MIC
[31] = M. bovigenitalium ATCC 14173, 6 days, 37° C., read-out: MIC

SMILES	MIC [1] [µg/mL]	MIC [4, 24] [µg/mL]	MIC [5] [µg/mL]	MIC [6] [µg/mL]	MIC [7, 25] [µg/mL]	MIC [8, 26] [µg/mL]	MIC [9] [µg/mL]	MIC [10] [µg/mL]	MIC [11, 27] [µg/mL]	MIC [12, 28] [µg/mL]	MIC [13] [µg/mL]	MIC [14] [µg/mL]	MIC [15] [µg/mL]	MIC [16] [µg/mL]	MIC [17] [µg/mL]	MIC [18] [µg/mL]	MIC [19] [µg/mL]	MIC [20] [µg/mL]	MIC [21] [µg/mL]	MIC [22] [µg/mL]	further results
C/C(=C\c1ncc(-c2ccccc2)o1)C[C@@H]1OC[C@H](C[C@@H]2O[C@H]2[C@@H](C)[C@H](C)O)[C@@H](O)[C@H]1O [Example 1, 2-(1-normon-2-yl)-5-phenyloxazole A]	1 (≈ 2.25 µM)	1 (≈ 2.25 µM)	≤ 0.01	2.5 (≈ 5.64 µM)	> 100	> 100	1 (≈ 2.25 µM)	1 (≈ 2.25 µM)	> 100	5 (≈ 11.3 µM)	> 80	> 80	20 (≈ 45.1 µM)	10 (≈ 22.5 µM)	80 (≈ 180 µM)	80 (≈ 180 µM)	80 (≈ 180 µM)	1.25 (≈ 2.82 µM)	0.625 (≈ 1.41 µM)	1.25 (≈ 2.82 µM)	MIC ([2]; STR.11, 144 h): 0.5 µg/mL (≈ 1.13 µM); MIC [3]: 0.5 µg/mL (≈ 1.13 µM)
C/C(=C/c1ncc(-c2ccccc2)o1)C[C@@H]1OC[C@H](C[C@@H]2O[C@H]2[C@@H](C)[C@H](C)O)[C@@H](O)[C@H]1O [Example 2, 2-{3-[5-(2,3-epoxy-5-hydroxy-4-methylhexyl)-3,4-dihydroxytetrahydropyran-2-yl]-2-methylprop-1(Z)-enyl}-5-phenyloxazole]	> 10	10 (≈ 22.5 µM)	0.25 (≈ 0.564 µM)	> 10	–	–	12.5 (≈ 28.2 µM)	12.5 (≈ 28.2 µM)	–	–	> 80	> 80	> 80	> 80	> 80	> 80	> 80	20 (≈ 45.1 µM)	10 (≈ 22.5 µM)	20 (≈ 45.1 µM)	MIC [2, 29]: 10 µg/mL (≈ 22.5 µM); MIC [3, 30]: 5 µg/mL (≈ 11.3 µM); MIC [23, 31]: 0.5 µg/mL (≈ 1.13 µM); MIC ([7]; NCTC10418, 18 h): > 50 µg/mL; MIC ([8]; NCTC10662, 18 h): > 50 µg/mL; MIC ([11]; Corynebacterium xerosis, 9755, 18 h): > 50 µg/mL; MIC ([12]; 2788B, 18 h): > 50 µg/mL
C/C(=C\c1ncc(-c2ccc([N+](=O)[O-])cc2)o1)C[C@@H]1OC[C@H](C[C@@H]2O[C@H]2[C@@H](C)[C@H](C)O)[C@@H](O)[C@H]1O [Example 3, 5-p-nitro-phenyl-2-(1-normon-2-yl)-oxazole A]	0.1 (≈ 0.205 µM)	0.25 (≈ 0.512 µM)	0.025 (≈ 0.0512 µM)	0.5 (≈ 1.02 µM)	> 100	> 100	0.1 (≈ 0.205 µM)	0.1 (≈ 0.205 µM)	> 100	0.5 (≈ 1.02 µM)	> 80	> 80	5 (≈ 10.2 µM)	5 (≈ 10.2 µM)	10 (≈ 20.5 µM)	> 80	80 (≈ 164 µM)	0.312 (≈ 0.639 µM)	0.312 (≈ 0.639 µM)	1.25 (≈ 2.56 µM)	MIC [2, 29]: 0.1 µg/mL (≈ 0.205 µM); MIC [3, 30]: 0.1 µg/mL (≈ 0.205 µM); MIC [23, 31]: 0.05 µg/mL (≈ 0.102 µM)
C/C(=C\c1ncc(-c2cccc(C#N)c2)o1)C[C@@H]1OC[C@H](C[C@@H]2O[C@H]2[C@@H](C)[C@H](C)O)[C@@H](O)[C@H]1O [Example 5, 5-m-cyanophenyl-2-(1-normon-2-yl)oxazole A]	0.05 (≈ 0.107 µM)	–	≤ 0.01	0.5 (≈ 1.07 µM)	> 50	> 50	1.2 (≈ 2.56 µM)	1.2 (≈ 2.56 µM)	> 50	2.5 (≈ 5.34 µM)	> 80	> 80	40 (≈ 85.4 µM)	5 (≈ 10.7 µM)	40 (≈ 85.4 µM)	80 (≈ 171 µM)	80 (≈ 171 µM)	0.625 (≈ 1.33 µM)	0.312 (≈ 0.666 µM)	0.625 (≈ 1.33 µM)	MIC [2, 29]: 0.05 µg/mL (≈ 0.107 µM); MIC [3, 30]: 0.05 µg/mL (≈ 0.107 µM); MIC [4]: 0.1 µg/mL (≈ 0.213 µM); MIC [23]: 0.025 µg/mL (≈ 0.0534 µM)
